Experimental data taken from patent publication US20230123334A1, “AMINO LIPID COMPOUND, PREPARATION METHOD THEREFOR, AND APPLICATION THEREOF” (SHENZHEN SHENXIN BIOTECHNOLOGY CO., LTD., priority 2020, published 2023).

System: HEK293 cells
Test: Preliminary screening as mRNA vectors, EGFP mRNA transfection of HEK293 cells
Type: cell-based
Conditions: EGFP mRNA 50 ng per well, 96-well plates; percentage of GFP fluorescent cells relative to total number of cells (Hoechst)
Outline: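 Screening format: EGFP mRNA transfection (50 ng/well) into HEK293 in 10% FBS-supplemented DMEM. Percent green fluorescent cells, normalised to Hoechst nuclear count, gave the value; Lipofectamine2000 was the reference transfectant.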

SMILES	Absolute mRNA transfection efficiency in HEK293 cells
CCCCCCCCCCCCCCCCNc1nc(NCCCN2CCOCC2)nc(SCCCCCCCCCCCCCCCC)n1 [Compound D8S16N16]	0.0%
CCCCCCCCCCCCCCCCCCNc1nc(NCCCN2CCOCC2)nc(SCCCCCCCCCCCCCCCC)n1 [Compound D8S16N18]	0.0%
CCCCCCCCCCCCCCCCCCSc1nc(NCCCCCC)nc(NCCCN2CCOCC2)n1 [Compound D8S18N6]	1.0%
CCCCCCCCCCCCCCCCCCSc1nc(NCCCCCCC)nc(NCCCN2CCOCC2)n1 [Compound D8S18N7]	3.9%
CCCCCCCCCCCCCCCCCCSc1nc(NCCCCCCCC)nc(NCCCN2CCOCC2)n1 [Compound D8S18N8]	0.5%
CCCCCCCCCCCCCCCCCCSc1nc(NCCCCCCCCC)nc(NCCCN2CCOCC2)n1 [Compound D8S18N9]	0.2%
CCCCCCCCCCCCCCCCCCSc1nc(NCCCCCCCCCCC)nc(NCCCN2CCOCC2)n1 [Compound D8S18N11]	1.9%
CCCCCCCCCCCCCCCCCCSc1nc(NCCCCCCCCCCCC)nc(NCCCN2CCOCC2)n1 [Compound D8S18N12]	0.4%
CCCCCCCCCCCCCCCCCCSc1nc(NCCCCCCCCCCCCC)nc(NCCCN2CCOCC2)n1 [Compound D8S18N13]	0.0%
CCCCCCCCCCCCCCCCCCSc1nc(NCCCCCCCCCCCCCCC)nc(NCCCN2CCOCC2)n1 [Compound D8S18N15]	0.0%
CCCCCCCCCCCCCCCCCCSc1nc(NCCCCCCCCCCCCCCCC)nc(NCCCN2CCOCC2)n1 [Compound D8S18N16]	0.0%
CCCCCCCCCCCCCCCCCCNc1nc(NCCCN2CCOCC2)nc(SCCCCCCCCCCCCCCCCCC)n1 [Compound D8S18N18]	0.0%
CCCCCCNc1nc(NCCCN2CCN(C)CC2)nc(SCCCCCC)n1 [Compound D9S6N6]	1.5%
CCCCCCCNc1nc(NCCCN2CCN(C)CC2)nc(SCCCCCC)n1 [Compound D9S6N7]	2.6%
CCCCCCCCNc1nc(NCCCN2CCN(C)CC2)nc(SCCCCCC)n1 [Compound D9S6N8]	2.5%
CCCCCCCCCNc1nc(NCCCN2CCN(C)CC2)nc(SCCCCCC)n1 [Compound D9S6N9]	0.9%
CCCCCCCCCCCNc1nc(NCCCN2CCN(C)CC2)nc(SCCCCCC)n1 [Compound D9S6N11]	11.9%
CCCCCCCCCCCCNc1nc(NCCCN2CCN(C)CC2)nc(SCCCCCC)n1 [Compound D9S6N12]	4.9%
CCCCCCCCCCCCCNc1nc(NCCCN2CCN(C)CC2)nc(SCCCCCC)n1 [Compound D9S6N13]	6.6%
CCCCCCCCCCCCCCCNc1nc(NCCCN2CCN(C)CC2)nc(SCCCCCC)n1 [Compound D9S6N15]	11.9%
CCCCCCCCCCCCCCCCNc1nc(NCCCN2CCN(C)CC2)nc(SCCCCCC)n1 [Compound D9S6N16]	29.6%

SMILES	Absolute mRNA transfection efficiency in HEK293 cells
CCCCCCCCCCCCCCCCCCNc1nc(NCCCN2CCN(C)CC2)nc(SCCCCCC)n1 [Compound D9S6N18]	24.0%
CCCCCCSc1nc(NCCCN2CCN(C)CC2)nc(SCCCCCC)n1 [Compound D9S6S6]	8.0%
CCCCCCCSc1nc(NCCCN2CCN(C)CC2)nc(SCCCCCC)n1 [Compound D9S6S7]	6.3%
CCCCCCCCSc1nc(NCCCN2CCN(C)CC2)nc(SCCCCCC)n1 [Compound D9S6S8]	3.0%
CCCCCCCCCSc1nc(NCCCN2CCN(C)CC2)nc(SCCCCCC)n1 [Compound D9S6S9]	5.6%
CCCCCCCCCCSc1nc(NCCCN2CCN(C)CC2)nc(SCCCCCC)n1 [Compound D9S6S10]	23.7%
CCCCCCCCCCCSc1nc(NCCCN2CCN(C)CC2)nc(SCCCCCC)n1 [Compound D9S6S11]	8.5%
CCCCCCCCCCCCSc1nc(NCCCN2CCN(C)CC2)nc(SCCCCCC)n1 [Compound D9S6S12]	1.0%
CCCCCCCCCCCCCCSc1nc(NCCCN2CCN(C)CC2)nc(SCCCCCC)n1 [Compound D9S6S14]	35.8%
CCCCCCCCCCCCCCCSc1nc(NCCCN2CCN(C)CC2)nc(SCCCCCC)n1 [Compound D9S6S15]	6.5%
CCCCCCCCCCCCCCCCSc1nc(NCCCN2CCN(C)CC2)nc(SCCCCCC)n1 [Compound D9S6S16]	38.2%
CCCCCCCCCCCCCCCCCCSc1nc(NCCCN2CCN(C)CC2)nc(SCCCCCC)n1 [Compound D9S6S18]	62.8%
CCCCCCCSc1nc(NCCCCCC)nc(NCCCN2CCN(C)CC2)n1 [Compound D9S7N6]	0.8%
CCCCCCCNc1nc(NCCCN2CCN(C)CC2)nc(SCCCCCCC)n1 [Compound D9S7N7]	2.5%
CCCCCCCCNc1nc(NCCCN2CCN(C)CC2)nc(SCCCCCCC)n1 [Compound D9S7N8]	1.7%
CCCCCCCCCNc1nc(NCCCN2CCN(C)CC2)nc(SCCCCCCC)n1 [Compound D9S7N9]	5.2%
CCCCCCCCCCCNc1nc(NCCCN2CCN(C)CC2)nc(SCCCCCCC)n1 [Compound D9S7N11]	13.8%
CCCCCCCCCCCCNc1nc(NCCCN2CCN(C)CC2)nc(SCCCCCCC)n1 [Compound D9S7N12]	62.7%
CCCCCCCCCCCCCNc1nc(NCCCN2CCN(C)CC2)nc(SCCCCCCC)n1 [Compound D9S7N13]	60.4%
CCCCCCCCCCCCCCCNc1nc(NCCCN2CCN(C)CC2)nc(SCCCCCCC)n1 [Compound D9S7N15]	32.6%
CCCCCCCCCCCCCCCCNc1nc(NCCCN2CCN(C)CC2)nc(SCCCCCCC)n1 [Compound D9S7N16]	29.3%

SMILES	Absolute mRNA transfection efficiency in HEK293 cells
CCCCCCCCCCCCCCCCCCNc1nc(NCCCN2CCN(C)CC2)nc(SCCCCCCC)n1 [Compound D9S7N18]	37.1%
CCCCCCCSc1nc(NCCCN2CCN(C)CC2)nc(SCCCCCCC)n1 [Compound D9S7S7]	18.3%
CCCCCCCCSc1nc(NCCCN2CCN(C)CC2)nc(SCCCCCCC)n1 [Compound D9S7S8]	43.7%
CCCCCCCCCSc1nc(NCCCN2CCN(C)CC2)nc(SCCCCCCC)n1 [Compound D9S7S9]	35.3%
CCCCCCCCCCSc1nc(NCCCN2CCN(C)CC2)nc(SCCCCCCC)n1 [Compound D9S7S10]	47.1%
CCCCCCCCCCCSc1nc(NCCCN2CCN(C)CC2)nc(SCCCCCCC)n1 [Compound D9S7S11]	80.0%
CCCCCCCCCCCCSc1nc(NCCCN2CCN(C)CC2)nc(SCCCCCCC)n1 [Compound D9S7S12]	26.4%
CCCCCCCCCCCCCCSc1nc(NCCCN2CCN(C)CC2)nc(SCCCCCCC)n1 [Compound D9S7S14]	34.5%
CCCCCCCCCCCCCCCSc1nc(NCCCN2CCN(C)CC2)nc(SCCCCCCC)n1 [Compound D9S7S15]	9.6%
CCCCCCCCCCCCCCCCSc1nc(NCCCN2CCN(C)CC2)nc(SCCCCCCC)n1 [Compound D9S7S16]	9.2%
CCCCCCCCCCCCCCCCCCSc1nc(NCCCN2CCN(C)CC2)nc(SCCCCCCC)n1 [Compound D9S7S18]	34.3%
CCCCCCCCSc1nc(NCCCCCC)nc(NCCCN2CCN(C)CC2)n1 [Compound D9S8N6]	0.7%
CCCCCCCCSc1nc(NCCCCCCC)nc(NCCCN2CCN(C)CC2)n1 [Compound D9S8N7]	1.4%
CCCCCCCCNc1nc(NCCCN2CCN(C)CC2)nc(SCCCCCCCC)n1 [Compound D9S8N8]	4.5%
CCCCCCCCCNc1nc(NCCCN2CCN(C)CC2)nc(SCCCCCCCC)n1 [Compound D9S8N9]	57.0%
CCCCCCCCCCCNc1nc(NCCCN2CCN(C)CC2)nc(SCCCCCCCC)n1 [Compound D9S8N11]	81.7%
CCCCCCCCCCCCNc1nc(NCCCN2CCN(C)CC2)nc(SCCCCCCCC)n1 [Compound D9S8N12]	57.6%
CCCCCCCCCCCCCNc1nc(NCCCN2CCN(C)CC2)nc(SCCCCCCCC)n1 [Compound D9S8N13]	46.5%
CCCCCCCCCCCCCCCNc1nc(NCCCN2CCN(C)CC2)nc(SCCCCCCCC)n1 [Compound D9S8N15]	37.8%
